Experiment [1] deals with LNCaP cells. Nature of the experiment: MTT cell proliferation assay, 7 d, LNCaP. The class given is cell-based, human. Conditions: Homo sapiens, LNCaP, 168 h, 7 d treatment. The text has this: (§1) Androgen-dependent (LNCaP), androgen-independent (PC-3) and castration resistant (C4-2B and 22Rv1) human prostate carcinoma cells were procured from American Type Culture Collection, Manassas, VA, USA and maintained in RPMI 1640 media (Gibco-Life Technologies, Grand Island, NY, USA) supplemented with 10% fetal bovine serum and 1% penicillin/streptomycin. […] Immortalized untransformed prostate epithelial cells, PWR1E from American Type Culture Collection were maintained in serum-free Keratinocyte media (Gibco) supplemented with epidermal growth factor and bovine pituitary extract. All cell lines were maintained in a 37 °C/5% CO2 humidified atmosphere.
(§2) Cell proliferation assay was performed as described previously. For cell growth experiment, cells were treated with the NRs for 7 days. MTT assay was performed at the end of the experiment. Calculations of combination indices were done using the Calcusyn program (Biosoft, Cambridge, United Kingdom). For colony formation assay, cells were plated 1000 per well in complete media and allowed to adhere for 24 h. The next day cells were treated with indicated compounds (5 μM). After 24 h compound containing media were removed, and cells were allowed to form colonies in complete media. Approximately 2 weeks later the colonies were fixed, stained with 0.5% crystal violet (sigma) for 30 min and counted manually. Results represent the mean ± standard deviation of three independent experiments.
On the technique in general: Tetrazolium dyes change colour on reduction, which living cells bring about.

The subject of experiment [2] is PC-3 cells. Nature of the experiment: MTT cell proliferation assay, 7 d, PC-3. The class given is cell-based. Conditions: Homo sapiens, PC-3, 168 h, 7 d treatment.
Text: as §1, §2

Experiment [3] deals with C4-2B cells. As to the kind of experiment: MTT cell proliferation assay, 7 d, C4-2B. The class given is cell-based. Conditions: Homo sapiens, 168 h, 7 d treatment.
Text: as §1, §2

For experiment [4], the system named is PWR-1E cells. As to the kind of experiment: MTT cell proliferation assay, 7 d, PWR-1E. Type of experiment: cell-based. Conditions: Homo sapiens, 168 h, immortalized untransformed prostate cells, 7 d treatment.
Text: as §1, §2

Experiment [5] relates to MR49F cells. Nature of the experiment: MTT growth inhibition in Enzalutamide resistant MR49F cells. Type of experiment: cell-based, human. As to conditions: for GI50: Homo sapiens, MR49F. How it is done: Figure 2 Effect of NRs on PCa cell growth and colony formation (A) Representative photographs of colonies formed in PCa cells at 14th day after initial treatment with specified compounds (5 μmol/L). Colonies were fixed with methanol and stained with crystal violet. (B) Data represents the mean ± S.E from three independent experiments. *, P< 0.05; ♣, P<0.01 compared to vehicle treated control. […] NRs that had promising inhibitory effect on cell proliferation on LNCaP cells were tested for their growth inhibitory effect in MR49F cells in comparison with Casodex and Abiraterone acetate by MTT assay.
as §1, §2

Experiment [6] concerns 22Rv1 cells. As to the kind of experiment: MTT cell proliferation assay, 7 d, 22Rv1. Type of experiment: cell-based. Conditions: Homo sapiens, 22Rv1, 168 h, 7 d treatment.
Text: as §1, §2

Experiment [7] concerns PCa cells. As to the kind of experiment: MTT cell viability in PCa cells (LNCaP, PC-3, C4-2B, 22Rv1). Conditions: for GI50: Homo sapiens, range over PCa cell lines; for growth inhibitory effect or differential sensitivity: PCa cells vs untransformed cells. The class given is cell-based, human. How it is done:
as §2

Experiment [8] deals with PC-3 cells. As to the kind of experiment: Boyden chamber matrigel invasion assay. The class given is cell-based, human. As to conditions: PC-3, 5 μM, 24 h. How it is done: Figure 5 Anti-migratory and anti-invasive potential of NRs (A) Effect of NRs treatment (5 μmol/L) on PC-3 cell migration was assessed by wound healing assay after 24 h of wound formation. Representative photomicrographs of initial and final wounds are shown at 100x magnification. (B) Effect of NRs on PC-3 cell invasion was evaluated by transwell migration assay. PC-3 cells were seeded on matrigel coated boyden chamber and treated with NRs (5 μmol/L, 24 h). Photographs represent the extent of cell invasion in each of the treated cells. (C) Western blot analysis of the effect of NRs on the expression of cadherins in PC-3 cells. Cells were treated with indicated compound 20 μmol/L for 24 h.
The invasion assay in PC-3 cells was performed using Matrigel (BD Biosciences, Bedford, MA, USA)-coated transwell cell culture chambers (8 μm pore size, EMD Millipore, Temecula, CA, USA) as described previously (43). Briefly, PC-3 cells (5 × 10^4 cells/well) were cultured in the upper chamber of the transwell insert for 24 h in serum-free RPMI-1640 medium. The cells were then treated with 5 μM of indicated compounds for 24 h. RPMI-1640 medium containing 10% FBS was placed in the lower chamber. At the end of incubation, the top surface of the non-migrated cells were scraped gently with cotton swabs and the cells on the lower surface of the membrane (migrated cells) were fixed for 15 min with cold methanol and stained with crystal violet. Cells that had migrated to the bottom of the membrane were visualized and counted using an inverted microscope. For each replicate (n = 3), cells in three randomly selected fields were counted and averaged.

In experiment [9] the test system is PC-3 cells. Nature of the experiment: Wound healing migration assay. The class given is cell-based, human. Conditions: 5 μM, 24 h. The protocol:
Figure 5 Anti-migratory and anti-invasive potential of NRs (A) Effect of NRs treatment (5 μmol/L) on PC-3 cell migration was assessed by wound healing assay after 24 h of wound formation. Representative photomicrographs of initial and final wounds are shown at 100x magnification. (B) Effect of NRs on PC-3 cell invasion was evaluated by transwell migration assay. PC-3 cells were seeded on matrigel coated boyden chamber and treated with NRs (5 μmol/L, 24 h). Photographs represent the extent of cell invasion in each of the treated cells. (C) Western blot analysis of the effect of NRs on the expression of cadherins in PC-3 cells. Cells were treated with indicated compound 20 μmol/L for 24 h. […] For wound healing assay highly metastatic PC-3 cells were plated in a 24 well plate at a seeding density of 5 × 10^5 cells/ well and allowed to form a confluent monolayer for 24 h. Cells were made dormant by pretreating with 0.5 μmol/L mitomycin C for 2 h to ensure that wounds are filled due to cell migration and not by cell proliferation. Subsequently, the monolayer was scratched with a pipette tip, washed with media to remove floating cells, and photographed (time 0 h). Cells were then treated with indicated compounds (5 μM) and the experiment was terminated as soon as wound was completely filled in vehicle treated controls. Cells were then photographed again using Nikon TE2000 microscope at three randomly selected sites per well [43].

Where [10] appears, read: DHT induced, read-out: GI50 LNCaP, DHT induced.
The mark [11] stands for this setting: read-out: GI50 MR49F (Figure 2C).

Where two headings read alike, the source gives them in different places.

For orientation: GI50 means the concentration that inhibits growth by half. Take `CC(=O)O[C@H]1CC[C@@]2(C)C(=CC[C@@H]3[C@@H]2CC[C@]2(C)C(c4cccnc4)=CC[C@@H]32)C1` [AA, Abiraterone acetate, reference compound]: the GI50 is 2.45 µM in experiment [1] (read-out: GI50 LNCaP); 2.69 µM in experiment [1] (setting [10]); 7.62 µM in experiment [2]; 1.47 µM in [3]; 20.2 µM in [4]; 27.5 µM in experiment [5] (read-out: GI50 MR49F). The concentration for 50% growth inhibition (GI50) in [6] was found to be 2.97 µM.

As to `CC1=C(/C=C/C(C)=C/C=C/C(C)=C/C(=O)O)C(C)(C)CCC1` [ATRA, all-trans-retinoic acid, reference compound], the GI50 in experiment [1] (read-out: GI50 LNCaP) came to 47.9 µM; in experiment [1] (setting [10]), 39.8 µM; in experiment [2], 36.3 µM; in experiment [3] it was 11.7 µM; in experiment [4], 75.3 µM; in experiment [6], 25.1 µM.

With `CC(O)(CS(=O)(=O)c1ccc(F)cc1)C(=O)Nc1ccc(C#N)c(C(F)(F)F)c1` (stereo not drawn) [Casodex, reference compound], the concentration for 50% growth inhibition (GI50) in experiment [1] (read-out: GI50 LNCaP) turned out to be 2.61 µM; in experiment [1] (setting [10]), 2.95 µM; in experiment [2] it was 9.15 µM; in experiment [3], 1.51 µM; in experiment [4], 69.1 µM; in experiment [5] (read-out: GI50 MR49F) it was 43.6 µM. In addition, the GI50 in experiment [6] is 3.81 µM.

Take `CC1=C(/C=C/C(C)=C/C=C/C(C)=C/C(=O)Nc2ccc(O)cc2)C(C)(C)CCC1` [Compound 4-HPR, 4-hydroxyphenyl retinamide, reference compound]: the GI50 in experiment [1] (read-out: GI50 LNCaP) worked out at 2.69 µM; in experiment [1] (setting [10]), 2.45 µM; in experiment [2] it was 3.54 µM; in [3] it was 3.11 µM; in experiment [4], 1.07 µM; in experiment [6] it was 3.23 µM.

For `CNC(=O)c1ccc(N2C(=S)N(c3ccc(C#N)c(C(F)(F)F)c3)C(=O)C2(C)C)cc1F` [MDV3100, Enzalutamide, reference compound], the GI50 in experiment [3] was 1.54 µM; in experiment [4], 17 µM; in [5] (setting [11]) it was above 100 µM. In addition, the “effect on growth of MR49F cells” value in [5] (up to a concentration of 100 μmol/L) is “no significant effect”.

In the case of `CC1=C(/C=C/C(C)=C/C=C/C(C)=C/C(=O)O)C(C)(C)CCC1n1ccnc1` (stereo not drawn) [VN/14-1], the concentration for 50% growth inhibition (GI50) amounted to 11.3 µM in [1] (read-out: GI50 LNCaP); 12.9 µM in [1] (setting [10]); 36.3 µM in [2]; 9.76 µM in [3]; 69.2 µM in [4]; 12.9 µM in experiment [6].

As for `CC1=C(/C=C/C(C)=C/C=C/C(C)=C/C(=O)Nc2ccc(O)cc2)C(C)(C)CCC1n1ccnc1` (stereo not drawn) [VN/66-1], the GI50 was determined as 4.67 µM in [1] (read-out: GI50 LNCaP); 1.54 µM in experiment [1] (setting [10]); 10.7 µM in experiment [2]; 2.38 µM in [3]; 19.1 µM in experiment [4]; 6.76 µM in experiment [5] (setting [11]). The GI50 in experiment [6] came out at 2.95 µM.

`CC1=C(/C=C/C(C)=C/C=C/C(C)=C/C(=O)NC(C)(C)C)C(C)(C)CCC1n1ccnc1` (stereo not drawn) [VNLG-145]: the GI50 in experiment [1] (read-out: GI50 LNCaP) is 2.45 µM; in [1] (setting [10]), 2.23 µM; in experiment [7], 1.5 to 5.5 µM; in experiment [2] it was 4.26 µM; in experiment [3], 2.14 µM; in experiment [4] it was 25.1 µM. Moreover, the GI50 in experiment [5] (setting [11]) is 3.89 µM; in experiment [6], 2.23 µM.

Regarding `CC1=C(/C=C/C(C)=C/C=C/C(C)=C/C(=O)Nc2cc(C(F)(F)F)ccc2C(F)(F)F)C(C)(C)CCC1n1ccnc1` (stereo not drawn) [VNLG-146], the 50% growth inhibitory concentration (GI50) in experiment [1] (read-out: GI50 LNCaP) worked out at 57.5 µM; in experiment [1] (setting [10]), 52.5 µM; in experiment [2] it was 57.5 µM; in [3] it was 11.7 µM; in [4] it was 63.1 µM; in experiment [6] it was 39.8 µM. For the same compound, the “growth inhibitory effect or differential sensitivity” value in [7] was “did not display any notable growth inhibitory effect or differential sensitivity”.

As to `CC1=C(/C=C/C(C)=C/C=C/C(C)=C/C(=O)Nc2ncnc3[nH]cnc23)C(C)(C)CCC1n1ccnc1` (stereo not drawn) [VNLG-148], the 50% growth inhibitory concentration (GI50) in [1] (read-out: GI50 LNCaP) is 22.9 µM; in experiment [1] (setting [10]), 19.1 µM; in experiment [2], 36.3 µM; in experiment [3], 15.5 µM; in experiment [4], 43.6 µM; in experiment [6], 39.8 µM. Also, the “growth inhibitory effect or differential sensitivity” value in [7] is “did not display any notable growth inhibitory effect or differential sensitivity”.

Turning to `CC1=C(/C=C/C(C)=C/C=C/C(C)=C/C(=O)Nc2ccccc2)C(C)(C)CCC1n1ccnc1` (stereo not drawn) [VNLG-153], the GI50 in experiment [1] (read-out: GI50 LNCaP) was 3.23 µM; in [1] (setting [10]), 2.69 µM; in experiment [7], 1.5 to 5.5 µM; in experiment [2], 4.36 µM; in [3], 2.97 µM; in experiment [4], 39.8 µM. Also, the 50% growth inhibitory concentration (GI50) in [5] (setting [11]) worked out at 7.41 µM; in experiment [6] it was 2.23 µM. The “percentage of cell invasion compared to control” value in experiment [8] came out at 35. Besides, the “PC-3 cell migration to the denuded zone” value in experiment [9] is recorded as “potentially suppressed”.

These data come from paper PMC4413647, “Simultaneous targeting of androgen receptor (AR) and MAPK-interacting kinases (MNKs) by novel retinamides inhibits growth of human prostate cancer cell lines” (Oncotarget, 2014).
